Common to all, as to test: Gentamycin Disk Diffusion test
Common to all, as to settings: disk method

Experiment [1] has as its system S. aureus MSSA. It is filed as cell-based, Staphylococcus aureus.
Experiment [2] deals with S. aureus MRSA. It counts as cell-based, Staphylococcus aureus.
Experiment [3] deals with S. epidermidis MSSE. It counts as cell-based, Staphylococcus epidermidis.
For experiment [4], the system named is S. epidermidis MRSE. It is filed as cell-based, Staphylococcus epidermidis.
For experiment [5], the system named is E. Coli-ESBL negative. It is filed as cell-based, Escherichia coli.
Experiment [6] concerns E. Coli-ESBL positive. It is filed as cell-based, Escherichia coli.
Experiment [7] relates to K. pneumoniae-ESBL negative. It counts as cell-based, Klebsiella pneumoniae.
Experiment [8] relates to K. pneumoniae-ESBL positive. It counts as cell-based, Klebsiella pneumoniae.
The subject of experiment [9] is Enterobacter aerogenes. It is filed as cell-based.
For experiment [10], the system named is A. baumannii-amikacin^s, meropenem^s. It is filed as cell-based, Acinetobacter baumannii.
Experiment [11] relates to A. baumannii-amikacin^r, meropenem^r. It counts as cell-based, Acinetobacter baumannii.
The subject of experiment [12] is Enterobacter cloacae W25161^r. It counts as cell-based.
Experiment [13] concerns A. baumannii R16998^r. It counts as cell-based, Acinetobacter baumannii.
Experiment [14] has as its system Enterococcus faecalis-vancomycin^r. It counts as cell-based.
The test system of experiment [15] is E. Coli B3095141^r. It counts as cell-based, Escherichia coli.

Data on one substance can be found in patent US20060166867A1, “Novel conjugates of polysaccharides and uses thereof” (priority 2003, published 2006).

Gentamycin: the “Gentamycin (disk): resistance or sensitivity of the tested strain” value (from here on “Gentamycin (disk)”) was “r (resistance of the tested strain (disk method diameter ≦12 millimeters, equivalent to a MIC ≧8 mg/liter))” in experiment [1]; “s (sensitivity of the tested strain (disk method diameter ≧15 millimeters, equivalent to a MIC ≦4 mg/liter))” in experiment [2]; “s (sensitivity of the tested strain (disk method diameter ≧15 millimeters, equivalent to a MIC ≦4 mg/liter))” in [3]; “s (sensitivity of the tested strain (disk method diameter ≧15 millimeters, equivalent to a MIC ≦4 mg/liter))” in experiment [4]; “s (sensitivity of the tested strain (disk method diameter ≧15 millimeters, equivalent to a MIC ≦4 mg/liter))” in [5]; “r (resistance of the tested strain (disk method diameter ≦12 millimeters, equivalent to a MIC ≧8 mg/liter))” in experiment [6]. The “Gentamycin (disk)” value was “s (sensitivity of the tested strain (disk method diameter ≧15 millimeters, equivalent to a MIC ≦4 mg/liter))” in experiment [7]; “r (resistance of the tested strain (disk method diameter ≦12 millimeters, equivalent to a MIC ≧8 mg/liter))” in [8]; “r (resistance of the tested strain (disk method diameter ≦12 millimeters, equivalent to a MIC ≧8 mg/liter))” in [9]; “r (resistance of the tested strain (disk method diameter ≦12 millimeters, equivalent to a MIC ≧8 mg/liter))” in experiment [10]; “r (resistance of the tested strain (disk method diameter ≦12 millimeters, equivalent to a MIC ≧8 mg/liter))” in experiment [11]; “r (resistance of the tested strain (disk method diameter ≦12 millimeters, equivalent to a MIC ≧8 mg/liter))” in experiment [12]. Also, the “Gentamycin (disk)” value is reported as “r (resistance of the tested strain (disk method diameter ≦12 millimeters, equivalent to a MIC ≧8 mg/liter))” in experiment [13]; “r (resistance of the tested strain (disk method diameter ≦12 millimeters, equivalent to a MIC ≧8 mg/liter))” in [14]; “r (resistance of the tested strain (disk method diameter ≦12 millimeters, equivalent to a MIC ≧8 mg/liter))” in experiment [15].
